Assay: in vitro drug release from a PBMA-coated stent
Type: physicochemical
Settings: over 24 hours, everolimus in PBMA drug coat, drug:polymer ratio 1 to 1.25, with 40-μg PBMA topcoat (0.3 micron coating thickness) on 18-mm medium stent
Description: Of import to the present invention is that a polymer's mesh size can be altered by the formation of pores within the polymer itself. One means of accomplishing this is to add such a large concentration of drug to the polymer that the drug phase separates out. Thus, during stent synthesis, drug is released, thereby forming pores within the polymer. However, a topcoat is often added to control drug release and prevent an initial bolus or burst release of drug. Unfortunately, sometimes even the thinnest topcoat that can be applied leads to a drug release that is too slow to be therapeutically effective. One example is everolimus in a PBMA drug coat with a PBMA topcoat. For example, it has been shown that a thin 40-μg PBMA topcoat on an 18-mm medium stent, i.e., a 0.3 micron coating thickness, with a drug:polymer ratio of 1 to 1.25, gave only 7.1% drug release over 24 hours in an in vitro experiment.

Compound: CO[C@H]1C[C@@H]2CC[C@@H](C)[C@@](O)(O2)C(=O)C(=O)N2CCCC[C@H]2C(=O)O[C@H]([C@H](C)C[C@@H]2CC[C@@H](OCCO)[C@H](OC)C2)CC(=O)[C@H](C)/C=C(\C)[C@@H](O)[C@@H](OC)C(=O)[C@H](C)C[C@H](C)/C=C/C=C/C=C/1C [everolimus]
- drug release: 7.1%
